Source: patent publication US20240358693A1, “METHODS OF TREATING PAIN” (Aisa Pharma, Inc., priority 2023, published 2024)

System: participants with Raynaud's Phenomenon secondary mostly to systemic sclerosis (SSc-RP)
Experiment: Frequency of weekly symptomatic RP attacks (patient diary), Phase 2a study Part A
Format: in vivo, human
Conditions: ITT Part A
Method: A randomized, placebo-controlled phase 2a study was performed and is in progress to assess the safety and efficacy of cilnidipine (10 mg and 20 mg) alone and in combination with 5 mg tadalafil, in participants with diagnosis of scleroderma and/or secondary Raynaud's disease.
The relevant metrics measured by this tool daily are: • Study medication • SSc-RP symptoms (Reporting an attack including duration of attack) • Severity of the attack considering all symptoms of the attack e.g., tingling, numbness, pain, color changes (VAS 0-10 cm scale) • Participant's location at the time of the attack (inside home/outside home) • Selecting symptoms experienced during the attack (tingling, numbness, pain, color changes, other) • Pain rating during the attack (11-point Likert scale) • The RCS based on how much difficulty participants had with Raynaud's today, how many attacks the participant had, and how long they lasted. Participants will also be asked to consider how much pain, numbness, or other symptoms the Raynaud's caused in fingers (including painful sores), and how much the Raynaud's alone affected the use of hands today (VAS 0-10 cm scale).
Percent change from baseline evaluation for frequency of weekly RP attacks were or will be used as the primary efficacy variable. The sponsor-developed participant-informed diary will be used to record data. Frequency of weekly RP attacks is defined as the total number of RP attacks divided by the number of days with available diary data within the last 7 days of each dosing period then multiplied by 7. Total number of RP attacks during the last 7 days of screening period divided by the number of days with available data then multiplied by 7 will be used as baseline for the analysis of all periods. The variable will be calculated as follows:
Percentage change={(weekly RP attacks for the last 7 days of each dosing period−Baseline weekly RP attacks)/Baseline weekly RP attacks}*100%.
Absolute change=weekly RP attacks for the last 7 days of each dosing period−Baseline weekly RP attacks
Percent change from baseline evaluation for frequency of weekly RP attacks was and will be the primary efficacy endpoint. Frequency of weekly RP attacks is defined as the total number of RP attacks divided by the number of days with available diary data within the last 7 days of each dosing period then multiplied by 7. Total number of RP attacks during the last 7 days of screening period divided by the number of days with available data then multiplied by 7 will be used as baseline for the analysis of all periods.
The following data was actually obtained in accordance with the protocol and plan delineated in Examples 1 and 2. The accompanying data involved 11 patients out of the planned 76 patient study. The study was done in patients with scleroderma (systemic sclerosis) who had relatively frequent Raynaud symptoms as they needed to average at least one attack per day during a screening period of up to two weeks. In this first phase of this double-blind placebo-controlled, prospective randomized study, patients were treated in parallel and after meeting study criteria were randomized to receive either placebo, cilnidipine 10 mg daily, cilnidipine 20 mg daily, tadalafil 5 mg daily, cilnidipine 10 mg plus 5 mg of tadalafil, or cilnidipine 20 mg plus 5 mg of tadalafil.

[1] = Cilnidipine 10 mg, n 1, Excluding Outliers
[2] = Cilnidipine 10 mg, n 1, by Baseline RCS, 1st block (RCS <5.0)
[3] = Cilnidipine 20 mg, n 2, Excluding Outliers
[4] = Cilnidipine 20 mg, n 2, by Baseline RCS, 1st block (RCS <5.0)
[5] = Pooled Cilnidipine 10 mg and Cilnidipine 10 mg + Tadalafil 5 mg (N = 3)
[6] = Pooled Cilnidipine 10 mg and Cilnidipine 10 mg + Tadalafil 5 mg, n 1, by Baseline RCS, 2nd block (RCS >5.0)
[7] = Pooled Cilnidipine 10 mg and Cilnidipine 10 mg + Tadalafil 5 mg, n 2, by Baseline RCS, 1st block (RCS <5.0)
[8] = Pooled Cilnidipine 10 mg and Cilnidipine 10 mg + Tadalafil 5 mg, n 3, Excluding Outliers
[9] = Pooled Cilnidipine 20 mg and Cilnidipine 20 mg + Tadalafil 5 mg (N = 4)
[10] = Pooled Cilnidipine 20 mg and Cilnidipine 20 mg + Tadalafil 5 mg, n 1, by Baseline RCS, 2nd block (RCS >5.0)
[11] = Pooled Cilnidipine 20 mg and Cilnidipine 20 mg + Tadalafil 5 mg, n 3, by Baseline RCS, 1st block (RCS <5.0)

## COCCOC(=O)C1=C(C)NC(C)=C(C(=O)OC/C=C/c2ccccc2)C1c1cccc([N+](=O)[O-])c1 (stereo not shown) [Cilnidipine, cilnidipine]
Cilnidipine 10 mg (N = 1)
  Weekly Symptomatic RP Attacks Change from Baseline, Mean: −7.00
  Weekly Symptomatic RP Attacks Change from Baseline, Median: −7.00
  Weekly Symptomatic RP Attacks Percent Change from Baseline, Mean: −33.33%
  Weekly Symptomatic RP Attacks Percent Change from Baseline, Median: −33.33%
  Weekly Symptomatic RP Attacks, Mean: 14.00
  Weekly Symptomatic RP Attacks, Median: 14.00
[1]
  Weekly Symptomatic RP Attacks Change from Baseline, Mean (SD): −7.00
  Weekly Symptomatic RP Attacks Change from Baseline, Median: −7.00
  Weekly Symptomatic RP Attacks Percent Change from Baseline, Mean (SD): −33.33%
  Weekly Symptomatic RP Attacks Percent Change from Baseline, Median: −33.33%
  Weekly Symptomatic RP Attacks, Mean (SD): 14.00
  Weekly Symptomatic RP Attacks, Median: 14.00
[2]
  Weekly Symptomatic RP Attacks Change from Baseline, Mean (SD): −7.00
  Weekly Symptomatic RP Attacks Change from Baseline, Median: −7.00
  Weekly Symptomatic RP Attacks Percent Change from Baseline, Mean (SD): −33.33%
  Weekly Symptomatic RP Attacks Percent Change from Baseline, Median: −33.33%
  Weekly Symptomatic RP Attacks, Mean (SD): 14.00
  Weekly Symptomatic RP Attacks, Median: 14.00
Cilnidipine 20 mg (N = 2)
  Weekly Symptomatic RP Attacks Change from Baseline, Mean: −4.50
  Weekly Symptomatic RP Attacks Change from Baseline, Median: −4.50
  Weekly Symptomatic RP Attacks Percent Change from Baseline, Mean: −33.73%
  Weekly Symptomatic RP Attacks Percent Change from Baseline, Median: −33.73%
  Weekly Symptomatic RP Attacks, Mean: 8.00
  Weekly Symptomatic RP Attacks, Median: 8.00
[3]
  Weekly Symptomatic RP Attacks Change from Baseline, Mean (SD): −4.50 (3.536)
  Weekly Symptomatic RP Attacks Change from Baseline, Median: −4.50
  Weekly Symptomatic RP Attacks Percent Change from Baseline, Mean (SD): −33.73 (7.296) %
  Weekly Symptomatic RP Attacks Percent Change from Baseline, Median: −33.73%
  Weekly Symptomatic RP Attacks, Mean (SD): 8.00 (4.243)
  Weekly Symptomatic RP Attacks, Median: 8.00
[4]
  Weekly Symptomatic RP Attacks Change from Baseline, Mean (SD): −4.50 (3.536)
  Weekly Symptomatic RP Attacks Change from Baseline, Median: −4.50
  Weekly Symptomatic RP Attacks Percent Change from Baseline, Mean (SD): −33.73 (7.296) %
  Weekly Symptomatic RP Attacks Percent Change from Baseline, Median: −33.73%
  Weekly Symptomatic RP Attacks, Mean (SD): 8.00 (4.243)
  Weekly Symptomatic RP Attacks, Median: 8.00
[5]
  Weekly Symptomatic RP Attacks Change from Baseline, Mean: −4.67
  Weekly Symptomatic RP Attacks Change from Baseline, Median: −4.00
  Weekly Symptomatic RP Attacks Percent Change from Baseline, Mean: −40.21%
  Weekly Symptomatic RP Attacks Percent Change from Baseline, Median: −42.86%
  Weekly Symptomatic RP Attacks, Mean: 7.67
  Weekly Symptomatic RP Attacks, Median: 5.00
[6]
  Weekly Symptomatic RP Attacks Change from Baseline, Mean (SD): −3.00
  Weekly Symptomatic RP Attacks Change from Baseline, Median: −3.00
  Weekly Symptomatic RP Attacks Percent Change from Baseline, Mean (SD): −42.86%
  Weekly Symptomatic RP Attacks Percent Change from Baseline, Median: −42.86%
  Weekly Symptomatic RP Attacks, Mean (SD): 4.00
  Weekly Symptomatic RP Attacks, Median: 4.00
[7]
  Weekly Symptomatic RP Attacks Change from Baseline, Mean (SD): −5.50 (2.121)
  Weekly Symptomatic RP Attacks Change from Baseline, Median: −5.50
  Weekly Symptomatic RP Attacks Percent Change from Baseline, Mean (SD): −38.89 (7.857) %
  Weekly Symptomatic RP Attacks Percent Change from Baseline, Median: −38.89%
  Weekly Symptomatic RP Attacks, Mean (SD): 9.50 (6.364)
  Weekly Symptomatic RP Attacks, Median: 9.50
[8]
  Weekly Symptomatic RP Attacks Change from Baseline, Mean (SD): −4.67 (2.082)
  Weekly Symptomatic RP Attacks Change from Baseline, Median: −4.00
  Weekly Symptomatic RP Attacks Percent Change from Baseline, Mean (SD): −40.21 (6.009) %
  Weekly Symptomatic RP Attacks Percent Change from Baseline, Median: −42.86%
  Weekly Symptomatic RP Attacks, Mean (SD): 7.67 (5.508)
  Weekly Symptomatic RP Attacks, Median: 5.00
[9]
  Weekly Symptomatic RP Attacks Change from Baseline, Mean: −3.63
  Weekly Symptomatic RP Attacks Change from Baseline, Median: −3.50
  Weekly Symptomatic RP Attacks Percent Change from Baseline, Mean: −25.00%
  Weekly Symptomatic RP Attacks Percent Change from Baseline, Median: −28.17%
  Weekly Symptomatic RP Attacks, Mean: 9.75
  Weekly Symptomatic RP Attacks, Median: 10.50
[10]
  Weekly Symptomatic RP Attacks Change from Baseline, Mean (SD): −0.50
  Weekly Symptomatic RP Attacks Change from Baseline, Median: −0.50
  Weekly Symptomatic RP Attacks Percent Change from Baseline, Mean (SD): −4.76%
  Weekly Symptomatic RP Attacks Percent Change from Baseline, Median: −4.76%
  Weekly Symptomatic RP Attacks, Mean (SD): 10.00
  Weekly Symptomatic RP Attacks, Median: 10.00
[11]
  Weekly Symptomatic RP Attacks Change from Baseline, Mean (SD): −4.67 (2.517)
  Weekly Symptomatic RP Attacks Change from Baseline, Median: −5.00
  Weekly Symptomatic RP Attacks Percent Change from Baseline, Mean (SD): −31.75 (6.199) %
  Weekly Symptomatic RP Attacks Percent Change from Baseline, Median: −28.57%
  Weekly Symptomatic RP Attacks, Mean (SD): 9.67 (4.163)
  Weekly Symptomatic RP Attacks, Median: 11.00
Pooled Cilnidipine 20 mg and Cilnidipine 20 mg + Tadalafil 5 mg, n 4, Excluding Outliers
  Weekly Symptomatic RP Attacks Change from Baseline, Mean (SD): −3.63 (2.926)
